One series can be described thus: pKa of levosimendan. The class given is physicochemical. Here is the method: (§1) At room temperature the solubility of levosimendan in phosphate buffer is 0.4 mg/ml (pH 7.4), 0.03 mg/ml (pH 6) and 0.02 mg/ml (pH 2). Thus, the water solubility of levosimendan decreases quite sharply when pH is lowered below neutral. […] Such solutions are chemically and physically stable over an extended period of time and, therefore, they are particularly suitable for pharmaceutical use.

A short description of series [1]: Solubility of levosimendan in phosphate buffer at room temperature. The settings on record: aqueous buffer. The class given is physicochemical. As for the experimental part:
as §1

In brackets after ≈: the same amount, converted by molar mass.

As for `CC1CC(=O)NN=C1c1ccc(NN=C(C#N)C#N)cc1` (single isomer, unassigned; (-)) [levosimendan, (−)-[[4-(1,4,5,6-tetrahydro-4-methyl-6-oxo-3-pyridazinyl)phenyl]hydrazono]propanedinitrile], in the series “pKa of levosimendan”, the pKa (in general, the negative logarithm of the acid dissociation constant) stood at 6.26. In addition, the figures for the solubility in series [1] (pH 2), in series [1] (pH 6) and in series [1] (pH 7.4) were 20 µg/mL (≈ 71.4 µM), 30 µg/mL (≈ 107 µM) and 400 µg/mL (≈ 1430 µM), respectively.
